The source of these data is patent US11298396B2, “Agent for inhibiting or reducing light sensitivity” (Osaka University, priority 2017, dated 2022).

In data set [1] the test system is BALB/c mice. The experiment in a line: Light-induced damage in mice, thickness of the photoreceptor layer (toluidine blue staining). It counts as in vivo, mouse. The conditions noted are these: 60 mg/kg subcutaneous; blue light damage for three days; vs DMSO control (FIG. 26). How it is done:
Retinal sections of wild-type control mice and Klhl18 KO mice with light-induced damage were prepared in the same manner as in Example 2 (2). The mouse retinal sections were used to measure the thickness of the photoreceptor layer in the same manner as in Example 5. Specifically, the sections were washed with PBS and stained with 0.1% toluidine blue (Sigma)/PBS for 1 minute. The sections were washed three times with PBS, and sealed in mounting medium. The sealed specimens were observed under an upright microscope equipped with a differential interference contrast objective lens. The thickness of the photoreceptor layer was determined by measuring the distance from the optic nerve.
MLN4924 (Chemscene) (60 mg/kg) was subcutaneously injected into the back of 4-weeks-old BALB/c mice (Japan SLC) that were kept in a dark place for 7 hours to be adapted to darkness. Four hours later, the mice were placed in a box with four mirrored walls and a mirrored floor, and exposed to blue LED light. The wavelength of the light was about 450 nm, and the light reaching the mice was at about 7000 lux. After three hours of exposure to the blue light, the mice were kept in the normal environment for 10 hours. This cycle was repeated for three days. […]

The subject of the next data set is Klhl18 protein. The experiment in a line: Inhibition of Klhl18-mediated degradation of Unc119 in transfected HEK293T cells, Western blotting. It counts as cell-based, mouse. How it is done:
Retinal tissue was harvested from one month old Klhl18 KO mice and wild-type (C57BL/6J strain) mice (purchased from Japan SLC) according to the conventional method. The retinal tissue was dissolved in 2× sample buffer (0.1 M Tris-HCl (pH 6.8), 1% SDS, 5% β-mercaptoethanol, 10% glycerol, and 0.02% BPB) and heat-treated at 100° C. for 5 minutes. SDS-PAGE was performed and the separated proteins on the gel were electrically transferred to a PVDF membrane (Merck Millipore) at 12 V for 90 minutes. The PVDF membrane was blocked with blocking solution (5% skim milk and 0.05% Tween 20/TBS) with shaking at room temperature for 1 hour. The PVDF membrane was reacted with a primary antibody diluted in the blocking solution at 4° C. overnight. The primary antibody was anti-Unc119 antibody (mouse monoclonal, a gift from Dr. Haeseleer (University of Washington, USA) (Haeseleer, 2008), 1:10 dilution) or α-Tublin antibody (mouse monoclonal, Sigma, 1:6,000 dilution). After completion of reaction with the primary antibody, the PVDF membrane was washed three times with 0.05% Tween 20/TBS with shaking at room temperature for 10 minutes. The PVDF membrane was reacted with a secondary antibody diluted in the blocking solution at room temperature for 1 hour. The secondary antibody was anti-mouse IgG (H+L) HRP-conjugated antibody (goat polyclonal, Zymed, 1:6,000 dilution). After completion of reaction with the secondary antibody, the PVDF membrane was again washed three times with 0.05% Tween 20/TBS with shaking at room temperature for […]. The PVDF membrane was reacted with chemiluminescent reagent (Chemi-Lumi One (Nacalai Tesque)) or Pierce Western Blotting Substrate Plus (Thermo Fisher Scientific). The membrane was exposed to an X-ray film, and the protein of interest was detected using a film processor.
The HEK293T cell line was cultured in DMEM (Wako Pure Chemical Industries) supplemented with antibiotics (penicillin (100 μg/mL)/streptomycin (100 μg/mL)) and 10% FBS at 37° C. under 5% CO2. […]

For data set [2], the system named is BALB/c mice. The experiment in a line: Light-induced damage in mice, electroretinogram (ERG) recording. Type of data set: in vivo, mouse. The conditions noted are these: 60 mg/kg subcutaneous; blue LED about 450 nm, about 7000 lux, 3 hours, cycle repeated for three days; ERG four days after final exposure; vs DMSO control (FIG. 24). How it is done:
Wild-type or Klhl18 KO mice of postnatal 2 months were light adapted or dark adapted. Light adaptation was performed at a light level of about 1000 lux for 1 hour or longer, and dark adaptation was performed by keeping the mice in a dark room for 4 hours or longer. Anesthesia was performed on dark-adapted or light-adapted mice with intraperitoneal injection of ketamine (100 mg/kg body weight per mouse) and xylazine (10 mg/kg body weight per mouse) in saline. Pupils were dilated with topical administration to the eyes with a mixture of 0.5% tropicamide and 0.5% phenylephrine HCl. ERG responses were measured with LED electrodes that emit a white flash (PuREC; Mayo Corporation). The mouse cornea was brought into contact with the electrodes, and stimulated with the stimulating flash using LED Visual Stimulator (LS-100, Mayo Corporation), and the ERG waves were recorded by TA-100 (Mayo Corporation) (FIGS. 7A and 8A). Strobe light stimulation with four levels of stimulus intensities ranging from −4.0 to 1.0 log cd−s/m^2 (−4.0, −3.0, −1.0 and 1 log cd−s/m^2) were used for the scotopic ERGs to measure the function of rod photoreceptor cells. […] From the wave data, a-waves and b-waves were quantified and expressed as the mean value±standard error. The photopic ERGs were recorded on a rod-suppressing white background of 1.3 log cd/m^2. […]

For data set [3], the system named is BALB/c mice. In words: Light-induced damage in mice, fluorescence immunostaining of the retina. Type of data set: in vivo, mouse. To be noted: 60 mg/kg subcutaneous; blue light damage for three days; vs DMSO control (FIG. 25). The method, then:
Fluorescent immunostaining was performed using the mouse retinal sections. Specifically, the mouse retinal sections prepared in the same manner as in Example 2 (2) were washed twice with PBS, and blocked with blocking buffer (4% Normal donkey serum/0.1% Triton X-100/PBS) at room temperature for 1 hour. The sections were reacted with a primary antibody at 4° C. overnight. The sections were washed three times with PBS, and reacted with a secondary antibody at room temperature for 2 hours. The primary antibody was anti-Rhodopsin antibody (rhodopsin, rabbit polyclonal, Santa Cruz, 1:500 dilution) or anti-S-opsin antibody (S-opsin (blue cone opsin), goat polyclonal, Santa Cruz, 1:500 dilution). The secondary antibody was Alexa Flour 488-conjugated anti-rabbit antibody (Thermo Fisher Scientific, 1:500 dilution) or Cy3 antibody (Jackson ImmunoResearch Laboratories, 1:500 dilution). After completion of reaction with the secondary antibody, the specimens were washed three times with PBS and sealed in mounting medium. All fluorescence images were taken under a confocal laser scanning microscope (LSM 700, Carl Zeiss).
MLN4924 (Chemscene) (60 mg/kg) was subcutaneously injected into the back of 4-weeks-old BALB/c mice (Japan SLC) that were kept in a dark place for 7 hours to be adapted to darkness. […]

Residues, ends and D or L forms follow the SMILES beside them. *: point of attachment. Cbz = O=C(OCc1ccccc1)*

In the case of `NS(=O)(=O)OC[C@@H]1C[C@@H](n2ccc3c(N[C@H]4CCc5ccccc54)ncnc32)C[C@@H]1O` [MLN4924], the “thickness of the photoreceptor layer in the retina” value with BALB/c mice [1] is on record as “better maintained as compared with that of the control mice”. The “degradation of the target Unc119 protein by the full-length Klhl18 protein” value in the data set with Klhl18 protein (HEK293T cells, MLN4924 final concentration 0.3 μM, 6 hours, vs 0.3% DMSO (FIG. 15)) is on record as “inhibits degradation of the target Unc119 protein by the full-length Klhl18 protein”. Besides, in the data set on BALB/c mice [2], the “electric amplitudes of the a-waves (photoreceptor cell activity)” value is on record as “higher than those in the control mice” and the “electric amplitudes of the b-waves (bipolar cell activity)” value is “higher than those in the control mice”. For the same molecule, in the data set on BALB/c mice [3], the “signal intensities and thickness of cone photoreceptor cells (markers: S-opsin and M-opsin)” value was “better retained as compared with those in the control mice”; the “signal intensities and thickness of rod photoreceptor cells (marker: rhodopsin)” value is listed as “better retained as compared with those in the control mice”.
Take `CC(C)C[C@@H](C=O)NC(=O)[C@H](CC(C)C)NC(=O)[C@H](CC(C)C)NC(=O)OCc1ccccc1` [MG-132] (Cbz-Leu-Leu-Leu-aldehyde): the “degradation of the target protein Unc119 by the full-length Klhl18 protein” value with Klhl18 protein (HEK293T cells, MG-132 final concentration 10 μM, 6 hours, vs 0.1% DMSO (FIG. 11)) is given as “inhibits degradation of the target protein Unc119 by the full-length Klhl18 protein”.

B1: C-terminal protein (C-terminal 298 residues) of the mouse Klhl18 gene: C-terminal 298 residues of mouse Klhl18 protein, expressed from plasmid pCAG-N-3× FLAG-C-Klhl18; acts as dominant negative (protein)
chain: RTRPRCCTSIAGLIYAVGGLNSAGDSLNVVEVFDPIANRWEKCHPMTTARSRVGVAVVNGLLYAIGGYDGQLRLSTVEAYNPETDTWTRVGSMNSKRSAMGTVVLDGQIYVCGGYDGNSSLNSVETYSPETDKWTVVTPMSSNRSAAGVTVFEGRIYVSGGHDGLQIFSSVEHYNHHTATWHPAASMLNKRCRHGAASLGSKMFVCGGYDGSGFLSIAEMYSSVADQWCLIVPMHTRRSRVSLVASCGRLYAVGGYDGQSNLSSVEMYDPETDRWTFMAPMACHEGGVGVGCIPLLTI
modifications: left off: small tags and cut ends
notes: C-terminal 298 residues of mouse Klhl18 protein, expressed from plasmid pCAG-N-3× FLAG-C-Klhl18; acts as dominant negative
Turning to B1, the “degradation of the target protein Unc119 by the full-length Klhl18 protein” value in the data set on Klhl18 protein (HEK293T cells co-transfected with FLAG-Klhl18, FLAG-C-terminal Klhl18 and HA-Unc119 plasmids, anti-HA Western blot (FIG. 10)) is on record as “inhibits degradation of the target protein Unc119 by the full-length Klhl18 protein”.
